According to patent publication US9993494B2, “Compositions and methods for treating fibrotic disease” (eFFECTOR Therapeutics, Inc., priority 2014, dated 2018):

Test system: normal human lung fibroblasts
Experiment: Ribosomal profiling: translational efficiency in TGFβ-treated fibroblasts
Type: cell-based
Settings: TGFβ-treated fibroblasts
In short: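 Cells lysed on ice after a cold PBS wash containing cycloheximide. Ribosome-protected fragments and total mRNA were prepared with the ARTseq kit and sequenced by RNA-Seq. Reads were trimmed, mapped to the human genome and counted uniquely over coding regions per gene, with low-count genes excluded before differential translational-efficiency analysis.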

CC(C=CC(=O)NO)=CC(C)C(=O)c1ccc(N(C)C)cc1 (stereo not drawn) [TSA, 7-[4-(dimethylamino)phenyl]-N-hydroxy-4,6-dimethyl-7-oxohepta-2,4-dienamide]
+++ (+++ = >2.0): renormalizing the translational profile of CIT (ENSG00000122966)
+ (+ = 0.9 to 1.5): renormalizing the translational profile of KITLG (ENSG00000049130) | renormalizing the translational profile of EIF4B (ENSG00000063046) | renormalizing the translational profile of ASPM (ENSG00000066279) | renormalizing the translational profile of EPB41L1 (ENSG00000088367) | renormalizing the translational profile of IRAK3 (ENSG00000090376) | renormalizing the translational profile of FMO2 (ENSG00000094963) | renormalizing the translational profile of GLTSCR2 (ENSG00000105373) | renormalizing the translational profile of GLCCI1 (ENSG00000106415) | renormalizing the translational profile of GDF10 (ENSG00000107623) | renormalizing the translational profile of C12orf57 (ENSG00000111678)
++ (++ = 1.5 to 2.0): renormalizing the translational profile of AURKA (ENSG00000087586) | renormalizing the translational profile of P2RX7 (ENSG00000089041) | renormalizing the translational profile of RAB3D (ENSG00000105514) | renormalizing the translational profile of GPSM2 (ENSG00000121957)
− (− = <0.9): renormalizing the translational profile of DNASE1L1 (ENSG00000013563) | renormalizing the translational profile of ADAMTS6 (ENSG00000049192) | renormalizing the translational profile of LETMD1 (ENSG00000050426) | renormalizing the translational profile of PLEKHA5 (ENSG00000052126) | renormalizing the translational profile of RPL18 (ENSG00000063177) | renormalizing the translational profile of HIPK2 (ENSG00000064393) | renormalizing the translational profile of RASSF1 (ENSG00000068028) | renormalizing the translational profile of PABPC1 (ENSG00000070756) | renormalizing the translational profile of RPL31 (ENSG00000071082) | renormalizing the translational profile of PLD1 (ENSG00000075651) | renormalizing the translational profile of EDN1 (ENSG00000078401) | renormalizing the translational profile of RPL6 (ENSG00000089009) | renormalizing the translational profile of KDM2B (ENSG00000089094) | renormalizing the translational profile of RPLP0 (ENSG00000089157) | renormalizing the translational profile of IGBP1 (ENSG00000089289) | renormalizing the translational profile of PABPC4 (ENSG00000090621) | renormalizing the translational profile of ACOT7 (ENSG00000097021) | renormalizing the translational profile of ATP5D (ENSG00000099624) | renormalizing the translational profile of LGALS1 (ENSG00000100097) | renormalizing the translational profile of EIF3L (ENSG00000100129) | renormalizing the translational profile of RPL3 (ENSG00000100316) | renormalizing the translational profile of CEP192 (ENSG00000101639) | renormalizing the translational profile of AMMECR1 (ENSG00000101935) | renormalizing the translational profile of PLP2 (ENSG00000102007) | renormalizing the translational profile of EIF3E (ENSG00000104408) | renormalizing the translational profile of EEF1D (ENSG00000104529) | renormalizing the translational profile of C19orf53 (ENSG00000104979) | renormalizing the translational profile of RPL18A (ENSG00000105640) | renormalizing the translational profile of COMP (ENSG00000105664) | renormalizing the translational profile of CORO2A (ENSG00000106789) | renormalizing the translational profile of RPL28 (ENSG00000108107) | renormalizing the translational profile of RPL19 (ENSG00000108298) | renormalizing the translational profile of RASD1 (ENSG00000108551) | renormalizing the translational profile of NAT9 (ENSG00000109065) | renormalizing the translational profile of RPL34 (ENSG00000109475) | renormalizing the translational profile of CRYAB (ENSG00000109846) | renormalizing the translational profile of GAPDH (ENSG00000111640) | renormalizing the translational profile of MDFI (ENSG00000112559) | renormalizing the translational profile of HBEGF (ENSG00000113070) | renormalizing the translational profile of RPL24 (ENSG00000114391) | renormalizing the translational profile of EEF1B2 (ENSG00000114942) | renormalizing the translational profile of IFIH1 (ENSG00000115267) | renormalizing the translational profile of DPH5 (ENSG00000117543) | renormalizing the translational profile of PPL (ENSG00000118898) | renormalizing the translational profile of PLEKHG1 (ENSG00000120278) | renormalizing the translational profile of LIAS (ENSG00000121897) | renormalizing the translational profile of RPL21 (ENSG00000122026) | renormalizing the translational profile of RPL5 (ENSG00000122406) | renormalizing the translational profile of INHBA (ENSG00000122641) | renormalizing the translational profile of RPL23 (ENSG00000125691) | renormalizing the translational profile of LAMP5 (ENSG00000125869)
